The values that follow come from patent US4048167A, “N,N-disubstituted derivatives of 3-carboxamide or 3-thiocarboxamide-7-(3-chloro-2-propenyl)-1,3,5,7-tetraazabicyclo(3.3.1) nonane and preparation II” (The Dow Chemical Company, priority 1976, dated 1977).

What all share (format): cell-based
The subject of one assay is S. aureus. In words: agar Petri dish dilution test, S. aureus. To be noted: Staphylococcus aureus.
The test system of another assay is E. coli. Kind of assay: agar Petri dish dilution test, E. coli. To be noted: Escherichia coli.
Another assay relates to mentagrophytes. In words: agar Petri dish dilution test, mentagrophytes.
In a further assay the test system is B. subtilis. Kind of assay: agar Petri dish dilution test, B. subtilis. The conditions noted are these: Bacillus subtilis.
A further assay has as its system A. aerogenes. In words: agar Petri dish dilution test, A. aerogenes. The conditions noted are these: Klebsiella aerogenes.
For assay [1], the system named is Pseudomas Species Str. 10. In words: agar Petri dish dilution test, Pseudomas Species Str. 10. The conditions noted are these: read-out: MIC, Ps.
The subject of another assay is M. phlei. In words: agar Petri dish dilution test, M. phlei. The conditions noted are these: Mycolicibacterium phlei.

Converted amounts (≈) assume the structure as drawn.

Regarding `CN(C)C(=O)N1CN2CN(C/C=C\Cl)CN(C2)C1` [Example 1, N,N-Dimethyl-3-Carboxamide-7-cis-(3-Chloro-2-Propenyl)-1,3,5,7-Tetraazabicyclo(3.3.1)Nonane], the MIC in the assay with S. aureus is 500 µg/mL (≈ 1830 µM); against E. coli, 500 µg/mL (≈ 1830 µM); against mentagrophytes, 100 µg/mL (≈ 365 µM); in the assay on B. subtilis it was 100 µg/mL (≈ 365 µM); against A. aerogenes it was 100 µg/mL (≈ 365 µM); in assay [1], 500 µg/mL (≈ 1830 µM). Moreover, 500 µg/mL (≈ 1830 µM) was the least that counted as inhibitory in the assay on M. phlei (MIC).

As for `CCN(CC)C(=O)N1CN2CN(C/C=C\Cl)CN(C2)C1` [Example 2 a.], the MIC in the assay with S. aureus is 500 µg/mL (≈ 1660 µM); against E. coli, 100 µg/mL (≈ 331 µM); against mentagrophytes it was 100 µg/mL (≈ 331 µM); against B. subtilis it was 100 µg/mL (≈ 331 µM); with A. aerogenes, 100 µg/mL (≈ 331 µM); in the assay on M. phlei, 500 µg/mL (≈ 1660 µM).

On to `O=C(N1CN2CN(C/C=C\Cl)CN(C2)C1)N(c1ccccc1)c1ccccc1` [Example 2 b.], for which the minimal inhibitory concentration (MIC) is 500 µg/mL (≈ 1260 µM) with S. aureus; 500 µg/mL (≈ 1260 µM) in the assay with E. coli; 100 µg/mL (≈ 251 µM) against mentagrophytes; 500 µg/mL (≈ 1260 µM) against B. subtilis; 500 µg/mL (≈ 1260 µM) in the assay on A. aerogenes; 500 µg/mL (≈ 1260 µM) in assay [1]. For the same molecule, in the assay with M. phlei, the minimum inhibitory concentration (MIC) came out at 500 µg/mL (≈ 1260 µM).

For the molecule `CN(C(=O)N1CN2CN(C/C=C\Cl)CN(C2)C1)c1ccccc1` [Example 2 c.], the minimal inhibitory concentration (MIC) with S. aureus stood at 500 µg/mL (≈ 1490 µM); against E. coli, 500 µg/mL (≈ 1490 µM); against mentagrophytes, 100 µg/mL (≈ 298 µM); against B. subtilis, 500 µg/mL (≈ 1490 µM); in the assay on A. aerogenes, 500 µg/mL (≈ 1490 µM); in assay [1] it was 500 µg/mL (≈ 1490 µM). This molecule also came in with a minimum inhibitory concentration (MIC) in the assay on M. phlei of 500 µg/mL (≈ 1490 µM).

For the molecule `CN(C)C(=S)N1CN2CN(C/C=C\Cl)CN(C2)C1` [Example 2 d.], the MIC against S. aureus worked out at 500 µg/mL (≈ 1730 µM); with E. coli, 500 µg/mL (≈ 1730 µM); against mentagrophytes, 100 µg/mL (≈ 345 µM); in the assay on B. subtilis, 100 µg/mL (≈ 345 µM); in the assay with A. aerogenes it was 500 µg/mL (≈ 1730 µM); in assay [1], 500 µg/mL (≈ 1730 µM). Also, it took 500 µg/mL (≈ 1730 µM) to inhibit growth against M. phlei (MIC).
